Laboratory results taken from US20100172870A1, “METHODS, USES AND COMPOSITIONS FOR MODULATING REPLICATION OF HCV THROUGH THE FARNESOID X RECEPTOR (FXR) ACTIVATION OR INHIBITION” (priority 2006, published 2010).

Legend:
[1] = tested on: genotype 1b replicon (R1b); assay: HCV subgenomic replicon R1b luciferase assay; format: cell-based, hepatitis C virus (HCV)
Excerpt: (§1) Replicons: Three subgenomic replicons were used in this study: two replicative forms called R1a and R1b according to their genotype origin and a derivative of the R1b replicon with a mutation in the RNA-dependant RNA polymerase (Rp-del) which is thus unable to replicate and was used as a negative control in all experiments. They are bicistronic RNAs which contains the firefly luciferase (Photinus pyralis) reporter gene downstream of the HCV IRES and the sequence coding for the polyprotein NS3 to NS5B downstream of the encephalomyocarditis virus (EMCV) IRES.
RNA transfection: The replicons were transfected into Huh7 cells by electroporation.
Subconfluent monolayers of Huh7 cells were detached from the culture dish by trypsin treatment and rinsing with complete DMEM. […] 400 μL of the cell suspension was mixed by gentle pipetting with 8 μg RNA (R1a, R1b or Rp-del) and transferred into an electroporation cuvette with a gap-width of 0.4 cm (BioRad). The mixture was immediately subjected to one electric pulse at 270 V, 950 μF and maximum resistance using a Gene Pulser System (BioRad).
After electroporation the 400 μL of each cell suspension was diluted in 9 mL complete DMEM and pooled together before being seeded onto 24-well plates (1 mL per well).
Luciferase Assay: Cells were washed with PBS and scraped off the plate with 80 μL of 1× Luciferase Cell Culture Lysis Reagent (Promega). 40 μL of the lysate were transferred to a 96-well plate and mixed with 200 μL of Luciferase Assay Reagent (Promega). Luminescence expressed as relative light units (RLU) was measured immediately on a scintillation counter (Top Count NXT, Perkin Elmer) for 10 s.
(§2) The data are averages from triplicate cultures. […] The values are expressed as relative ratios of the values obtained 4 h after electroporation. Unless otherwise stated, the RLU values were determined 72 h after transfection when cells were confluent.

[2] = tested on: replicon transfected cells (Huh7); assay: Toxicity for Huh7 / replicon transfected cells; format: cell-based, human
Excerpt: BAs, sterols and fatty acids are structurally related natural ligands of the NR1 family of nuclear receptors expressed in the liver and intestine. […] BAs were recently described as the natural ligands for FXR (Makishima M. et al. 2002; Parks D J. et al. 1999). To examine whether BAs were mediating their effects on HCV RNA replication through FXR we tested a panel of FXR ligands including the two formerly described FXR ligands that activate FXR at supraphysiological concentrations, farnesol and the synthetic retinoid TTNPB at a concentration of 10 μM each and other BAs such as CA, LCA, and UDCA, all at a concentration of 100 μM (FIG. 4B).

[3] = tested on: non-structural proteins NS4a and NS5a in R1b-transfected cells; assay: HCV protein expression by immunofluorescence staining and FACS analysis; format: cell-based, hepatitis C virus (HCV); details: for NS5a positive cells by FACS analysis: 3 days of treatment (untreated 22%); for mean fluorescence intensity in the positive cells: NS5a-labeling, 3 days (untreated 16)
Method: Immunofluorescence staining: Three days after electroporation, cells were plated in 8-well chamber slides at a density of 5×10^4 cells per well. 24 hours after, slides were washed in PBS and fixed in ⅔ acetone-ethanol for 5 minutes at −20° C. followed by 50 minutes block in PBS-glycin 0.2M. Primary antibodies were added to the cells at a 1:500 dilution in PBS-glycin 0.2M for 1 h at room temperature. After 3 washes in PBS, fluorescein conjugated secondary antibodies (Jackson ImmunoResearch) were added to the cells at a 1:50 dilution in PBS-glycin 0.2M for 40 minutes at room temperature. In the meantime, cells were counterstained with Evans Blue (Merck).
FACS analysis: 72 h post-electroporation, single-cell suspension was prepared for FACS analysis. Briefly 0.8.10^6 cells were fixed and permeabilised for 15 min at room temperature with Cytofix/Cytoperm (PharMingen). Cells were stained for 30 min with primary antibodies at a 1:500 dilution in Perm/Wash Buffer (PharMingen). Bound monoclonal antibody was detected by incubation for 30 min at 4° C. with secondary antibody diluted 1:100 in Perm/Wash Buffer. The stained cells were resuspended in PBS prior to analysis using a FACSCalibur 3C (BD Biosciences).

[4] = tested on: genotype 1a replicon (R1a); assay: HCV subgenomic replicon R1a luciferase assay; format: cell-based, hepatitis C virus (HCV); details: Huh7-Lunet cells, 72 h of treatment, CDCA 100 μM or GGS 10 μM
Excerpt: as §1, with “IRES. […]” for “IRES.”
Subconfluent monolayers of Huh7 cells were detached from the culture dish by trypsin treatment and rinsing with complete DMEM. The cells were washed once with phosphate buffer saline (PBS), counted and resuspended at 10^7 cells per mL in Cytomix buffer (Van den Hoff, M J. Et al. 1992). […]
Luciferase Assay: Cells were washed with PBS and scraped off the plate with 80 μL of 1× Luciferase Cell Culture Lysis Reagent (Promega). […] Luminescence expressed as relative light units (RLU) was measured immediately on a scintillation counter (Top Count NXT, Perkin Elmer) for 10 s.
as §2

[5] = molecular target: T1, FXR (Homo sapiens, UniProt Q96RI1); details: Urizar N L. et al. 2002, cited from earlier work
T1 construct: host or cells: HepG2
T1 sequence (Q96RI1 1-486): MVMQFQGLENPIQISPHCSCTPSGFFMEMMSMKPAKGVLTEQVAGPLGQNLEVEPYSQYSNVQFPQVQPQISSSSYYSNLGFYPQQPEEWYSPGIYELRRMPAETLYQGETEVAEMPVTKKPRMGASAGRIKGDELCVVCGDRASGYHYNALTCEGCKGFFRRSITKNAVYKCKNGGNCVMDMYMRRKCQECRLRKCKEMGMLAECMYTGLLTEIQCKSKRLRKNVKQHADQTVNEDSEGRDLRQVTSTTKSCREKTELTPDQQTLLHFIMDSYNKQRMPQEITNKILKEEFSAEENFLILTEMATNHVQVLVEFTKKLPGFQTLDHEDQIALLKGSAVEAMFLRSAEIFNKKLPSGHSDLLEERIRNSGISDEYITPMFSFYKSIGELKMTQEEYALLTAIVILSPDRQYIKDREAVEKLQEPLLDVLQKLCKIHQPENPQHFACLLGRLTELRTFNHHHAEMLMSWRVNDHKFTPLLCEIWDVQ

In the case of `C[C@H](CCC(=O)O)[C@H]1CC[C@H]2[C@@H]3[C@H](O)C[C@@H]4C[C@H](O)CC[C@]4(C)[C@H]3C[C@H](O)[C@]12C` [CA, cholic acid], the “effect on luciferase activity at 100 μM” value ([1]; Huh7 cells, 72 h (FIG. 4B)) is reported as “only weak activity”.

For `CC(C)CCC[C@@H](C)[C@H]1CC[C@H]2[C@@H]3CC=C4C[C@@H](O)CC[C@]4(C)[C@H]3CC[C@]12C` [cholesterol], the “effect on luciferase activity at 10 μM” value ([1]; Huh7 cells, 72 h (FIG. 4B)) was “did not show any effect on replication”.

For `C[C@H](CCC(=O)O)[C@H]1CC[C@H]2[C@@H]3CC[C@@H]4C[C@H](O)CC[C@]4(C)[C@H]3C[C@H](O)[C@]12C` [DCA, deoxycholic acid], the “concentration reaching maximum level of luciferase activity” value ([1]; Huh7 cells, 72 h) was 100 µM, the “increase of luciferase activity” value ([1]; Huh7 cells, DCA 100 μM, 72 h of treatment, vs untreated R1b cells) was 15 fold and the “time over which high levels of luciferase activities could be maintained” value ([1]; Huh7 cells, DCA 100 μM, long-term culture with passages every 3 or 4 days) was “more than 2 weeks”. The “mortality of treated cells compared to untreated” value ([2]; Huh7 cells, 100 μM) was “No increase in the mortality”.

For `CC(=O)[C@H]1CC[C@H]2[C@@H]3CC=C4C[C@@H](O)CC[C@]4(C)[C@H]3CC[C@]12C` [pregnenolone], the “effect on luciferase activity at 10 μM” value ([1]; Huh7 cells, 72 h (FIG. 4B)) was “None of these compounds induced any upregulation of the luciferase activity”.

With `C[C@H](CCC(=O)O)[C@H]1CC[C@H]2[C@@H]3[C@H](O)C[C@@H]4C[C@H](O)CC[C@]4(C)[C@H]3CC[C@]12C` [CDCA, chenodeoxycholic acid] the “effect on luciferase activity at 100 μM” value ([1]; Huh7 cells, 72 h (FIG. 4B)) was “most potent activator”, the “effect on luciferase activity, dose-response” value ([1]; Huh7 cells, 10, 50 or 100 μM, 72 h) was “dose-dependent” and the “concentration reaching maximum level of luciferase activity” value ([1]; Huh7 cells, 72 h) was 100 µM. For the same molecule, the “lowest concentration with detectable specific activity on luciferase” value ([1]; Huh7 cells, 72 h) was 10 µM, the “up-regulation of HCV RNA replication, comparison of free BAs” value ([1]; Huh7 cells, dose-response, 72 h) was “more efficiently than DCA” and the “NS5a positive cells by FACS analysis” value [3] was 27%. The “mean fluorescence intensity in the positive cells” value [3] was 39 and the “response of genotype 1a replicon to FXR-modulation” value [4] was “same behaviour as genotype 1b”.

For `C/C=C1\C(=O)CC2C3CCC4=CC(=O)CC[C@]4(C)C3CC[C@]12C` (stereo partly drawn) [GGS, trans-4,17(20)-pregnadiene-3,16-dione], the inhibition at 20 µM ([1]; Hepatitis C virus, Huh-7, Huh7-Lunet cells, 20 μM, 72 h, read-out: inhibition of the replication) was no more than 95%, the IC50 ([1]; Hepatitis C virus, Huh-7, Huh7-Lunet cells, basal replication, 72 h, read-out: inhibitory concentration causing a decrease of half the basal activity (IC50)) was roughly 2 µM and the “inhibition of the effect of CDCA on replication” value ([1]; Huh7-Lunet cells, CDCA 100 μM, guggulsterone 0.01 μM up to 20 μM, 72 h) was “inhibited in a dose-dependent fashion”. For the same molecule, the “further decrease of luciferase activity when associated to a given concentration of IFN” value ([1]; Huh7-Lunet cells, GGS 10 μM plus IFN, 72 h) was “about 10 fold”, the “inhibition of the basal replication of HCV” value ([1]; Huh7-Lunet cells, absence of BAs stimulation, 72 h) was “could also inhibit the basal replication” and the “concentrations toxic for the replicon transfected cells” value ([2]; replicon transfected cells) was 40 µM. For the same molecule, the “effect of GGS alone on FXR activity” value ([5]; HepG2 cells, bile salt export pump promoter-driven luciferase construct) was “had no effect”, the “concentration range antagonizing FXR” value [5] was “micromolar range” and the “NS4a and NS5a expression” value ([3]; 3 days of treatment) was “almost completely abolished”. For the same molecule, the “NS5a positive cells by FACS analysis” value [3] was 4%, the “mean fluorescence intensity in the positive cells” value [3] was “very weak fluorescence intensity” and the “response of genotype 1a replicon to FXR-modulation” value [4] was “same behaviour as genotype 1b”.

In the case of `CC(C)CCC(O)[C@@H](C)[C@H]1CC[C@H]2[C@@H]3CC=C4C[C@@H](O)CC[C@]4(C)[C@H]3CC[C@]12C` (some centres unmarked) [22-hydroxycholesterol], the “effect on luciferase activity at 5 μM” value ([1]; Huh7 cells, 72 h (FIG. 4B)) is reported as “did not show any effect on replication”.

In the case of `C/C(=C\c1ccc(C(=O)O)cc1)c1ccc2c(c1)C(C)(C)CCC2(C)C` [TTNPB, (E)-[(tetrahydrotetramethylnaphthalenyl)propenyl]benzoic acid], the “effect on luciferase activity at 10 μM” value ([1]; Huh7 cells, 72 h (FIG. 4B)) is reported as “slightly increased”.

In the case of `CC(=O)[C@H]1CC[C@H]2[C@@H]3CCC4=CC(=O)CC[C@]4(C)[C@H]3CC[C@]12C` [progesterone], the “effect on luciferase activity at 5 μM” value ([1]; Huh7 cells, 72 h (FIG. 4B)) is reported as “None of these compounds induced any upregulation of the luciferase activity”.

For `CC(C)=CCCC(C)=CCCC(C)=CCO` [farnesol], the “effect on luciferase activity at 10 μM” value ([1]; Huh7 cells, 72 h (FIG. 4B)) was “slightly increased”.

In the case of `C[C@H](CCCC(C)(C)O)[C@H]1CC[C@H]2[C@@H]3CC=C4C[C@@H](O)CC[C@]4(C)[C@H]3CC[C@]12C` [25-hydroxycholesterol], the “effect on luciferase activity at 1 μM” value ([1]; Huh7 cells, 1 μM, 72 h (FIG. 4B)) is reported as “did not show any effect on replication”.
